Reference: patent US20100196321A1, “COMPOUNDS” (GLAXOSMITHKLINE LLC, priority 2009, published 2010)

Key:
[1] = test system: sub-genomic HCV NS3-NS5B replicon of genotype 1b (ET subline) in Huh-7 cells; assay: Replicon Luciferase Cell Based Assay, genotype 1b; parameters: species or system HCV genotype 1b; conditions: Hepatitis C virus, Huh-7, 48 h, read-out: Genotype 1b (IC50 μM)
Experimental: (§1) A 10 mM stock solution in DMSO of each test compound was further diluted in DMSO in the first row of a 384-well, V-bottom microplate, to give 100 times the top concentration of the required dilution series. Dilutions of compound were prepared in 1:3 serial dilutions from the first row onwards robotically. A robot was also used to transfer 0.5 μL volumes from each dilution well into wells of white 384-well assay plates (Nunc #164610). Control wells received 0.5 μL of DMSO alone. Plates were made in duplicate for measuring HCV replication and cytotoxicity in the replicon cell lines.
(§2) Suspensions were prepared from cultures of Huh-7 cells stably transfected with sub-genomic HCV NS3—NS5B replicons of either genotype 1b (the ET subline described by Pietschmann, T., Lohmann, V., Kaul, A., Krieger, N., Rinck, G., Rutter, G., Strand, D. & Bartenschlager, R., Journal of Virology, 2002, 76, 4008-4021) or genotype 1a linked to a firefly luciferase reporter gene. Monolayers nearing confluency were stripped from growth flasks with versene-trypsin solution and the cells re-suspended in assay medium comprising DMEM (Invitrogen #11965-092) supplemented with 5% v/v foetal calf serum, 1% v/v non-essential amino acids solution, 100 units/ml penicillin, 100 μg/ml streptomycin and 2 mM GlutaMAX-1. 50 μL of suspension containing 5,000 cells of either genotype 1b or genotype 1a luciferase replicon were added to all wells, except medium controls, of the assay plate with a Multidrop Combi (Thermo Scientific Corporation) and the plate incubated for 48 hours at 37° C. in a 5% CO2 atmosphere. A solution of Steady-Glo cytolytic buffer/luciferase substrate (Promega #E2550) was prepared according to the manufacturer's instructions, and 20 μL were added to each well with a Multidrop Combi. To measure cytotoxicity, a solution of CellTiter-Glo Luminescent Cell Viability Assay reagent (Promega #G7573) was prepared according to the manufacturer's instructions, and 20 ul were added to each well with a Multidrop Combi. The plates were then read for luminescence on an Envision Multilabel Reader (Perkin Elmer)
(§3) Potency: The luminescence values from all compound-free wells containing cells were averaged to obtain a positive control value. The mean luminescence value from the compound-free wells that had received no cells was used to provide the negative (background) control value. After the subtraction of the mean background from all values, the readings from wells at each compound concentration were expressed as a percentage of the positive control signal. The quantifiable and specific reduction of luciferase signal in the presence of a drug is a direct measure of replicon inhibition. The BioAssay application and XC50 module were used to plot the curve of percentage inhibition against compound concentration and derive the 50% inhibitory concentration (IC50) for the compound.

[2] = test system: sub-genomic HCV NS3-NS5B replicon of genotype 1a in Huh-7 cells; assay: Replicon Luciferase Cell Based Assay, genotype 1a; parameters: species or system HCV genotype 1a; conditions: Hepatitis C virus, Huh-7, 48 hours
Experimental: as §1, §2, §3

Compound	IC50 [1]	IC50 [2]
COc1ccc2c(O[C@@H]3C[C@H]4C(=O)N[C@]5(C(=O)NS(=O)(=O)C6CC6)C[C@H]5/C=C\CCCCC[C@H](NC(=O)N5CCCCC5)C(=O)N4C3)cc(-c3nc(C4CC4)cs3)nc2c1C [Example 31, (2R,6S,13aS,14aR,16aS,Z)-N-(cyclopropylsulfonyl)-2-(2-(4-cyclopropylthiazol-2-yl)-7-methoxy-8-methylquinolin-4-yloxy)-5,16-dioxo-6-(piperidine-1-carboxamido)-1,2,3,5,6,7,8,9,10,11,13a,14,14a,15,16,16a-hexadecahydrocyclopropa[e]pyrrolo[1,2-a][1,4]diazacyclopentadecine-14a-carboxamide]	< 0.01 µM	< 0.01 µM
COc1ccc2c(O[C@@H]3C[C@H]4C(=O)N[C@]5(C(=O)NS(=O)(=O)C6CC6)C[C@H]5/C=C\CCCCC[C@H](NC(=O)N5CCOCC5)C(=O)N4C3)cc(-c3nc(C(C)C)cs3)nc2c1C [Example 14]	< 0.01 µM	< 0.01 µM
COc1ccc2c(O[C@@H]3C[C@H]4C(=O)N[C@]5(C(=O)NS(=O)(=O)C6CC6)C[C@H]5/C=C\CCCCC[C@H](NC(=O)N(C)C(C)(C)C)C(=O)N4C3)cc(-c3nc(C4CC4)cs3)nc2c1C [Example 9, (2R,6S,13aS,14aR,16aS)-N-(cyclopropylsulfonyl)-2-{[2-(4-cyclopropyl-1,3-thiazol-2-yl)-8-methyl-7-(methyloxy)-4-quinolinyl]oxy}-6-({[(1,1-dimethylethyl)(methyl)amino]carbonyl}amino)-5,16-dioxo-1,2,3,6,7,8,9,10,11,13a,14,15,16,16a-tetradecahydrocyclopropa[e]pyrrolo[1,2-a][1,4]diazacyclopentadecine-14a(5H)-carboxamide]	< 0.01 µM	< 0.01 µM
COCCN(C)C(=O)N[C@H]1CCCCC/C=C\[C@@H]2C[C@@]2(C(=O)NS(=O)(=O)C2CC2)NC(=O)[C@@H]2C[C@@H](Oc3cc(-c4nc(C5CC5)cs4)nc4c(Cl)c(OC)ccc34)CN2C1=O [Example 28, (2R,6S,13aS,14aR,16aS)-2-{[8-chloro-2-(4-cyclopropyl-1,3-thiazol-2-yl)-7-(methyloxy)-4-quinolinyl]oxy}-N-(cyclopropylsulfonyl)-6-[({methyl[2-(methyloxy)ethyl]amino}carbonyl)amino]-5,16-dioxo-1,2,3,6,7,8,9,10,11,13a,14,15,16,16a-tetradecahydrocyclopropa[e]pyrrolo[1,2-a][1,4]diazacyclopentadecine-14a(5H)-carboxamide]	< 0.01 µM	< 0.01 µM
COc1ccc2c(O[C@@H]3C[C@H]4C(=O)N[C@]5(C(=O)NS(=O)(=O)C6CC6)C[C@H]5/C=C\CCCCC[C@H](NC(=O)N(C(C)C)C(C)C)C(=O)N4C3)cc(-c3nc(C4CC4)cs3)nc2c1C [Example 8, (2R,6S,13aS,14aR,16aS)-6-({[bis(1-methylethyl)amino]carbonyl}amino)-N-(cyclopropylsulfonyl)-2-{[2-(4-cyclopropyl-1,3-thiazol-2-yl)-8-methyl-7-(methyloxy)-4-quinolinyl]oxy}-5,16-dioxo-1,2,3,6,7,8,9,10,11,13a,14,15,16,16a-tetradecahydrocyclopropa[e]pyrrolo[1,2-a][1,4]diazacyclopentadecine-14a(5H)-carboxamide]	< 0.01 µM	< 0.01 µM
COc1ccc2c(O[C@@H]3C[C@H]4C(=O)N[C@]5(C(=O)NS(=O)(=O)C6CC6)C[C@H]5/C=C\CCCCC[C@H](NC(=O)N5CCC(C)(C)C5)C(=O)N4C3)cc(-c3nc(C(C)C)cs3)nc2c1C [Example 36, (2R,6S,13aS,14aR,16aS,Z)-N-(cyclopropylsulfonyl)-6-(3,3-dimethylpyrrolidine-1-carboxamido)-2-(2-(4-isopropylthiazol-2-yl)-7-methoxy-8-methylquinolin-4-yloxy)-5,16-dioxo-1,2,3,5,6,7,8,9,10,11,13a,14,14a,15,16,16a-hexadecahydrocyclopropa[e]pyrrolo[1,2-a][1,4]diazacyclopentadecine-14a-carboxamide]	< 0.01 µM	< 0.01 µM
COc1ccc2c(O[C@@H]3C[C@H]4C(=O)N[C@]5(C(=O)NS(=O)(=O)C6CC6)C[C@H]5/C=C\CCCCC[C@H](NC(=O)N5CCC(N6CCCC6)CC5)C(=O)N4C3)cc(-c3nc(C(C)C)cs3)nc2c1C [Example 21, (2R,6S,13aS,14aR,16aS)-N-(cyclopropylsulfonyl)-2-{[8-methyl-2-[4-(1-methylethyl)-1,3-thiazol-2-yl]-7-(methyloxy)-4-quinolinyl]oxy}-5,16-dioxo-6-({[4-(1-pyrrolidinyl)-1-piperidinyl]carbonyl}amino)-1,2,3,6,7,8,9,10,11,13a,14,15,16,16a-tetradecahydrocyclopropa[e]pyrrolo[1,2-a][1,4]diazacyclopentadecine-14a(5H)-carboxamide]	< 0.01 µM	< 0.01 µM
COc1ccc2c(O[C@@H]3C[C@H]4C(=O)N[C@]5(C(=O)NS(=O)(=O)C6CC6)C[C@H]5/C=C\CCCCC[C@H](NC(=O)N5CCC(CC(N)=O)CC5)C(=O)N4C3)cc(-c3nc(C(C)C)cs3)nc2c1C [Example 23, (2R,6S,13aS,14aR,16aS)-6-({[4-(2-amino-2-oxoethyl)-1-piperidinyl]carbonyl}amino)-N-(cyclopropylsulfonyl)2-{[8-methyl-2-[4-(1-methylethyl)-1,3-thiazol-2-yl]-7-(methyloxy)-4-quinolinyl]oxy}-5,16-dioxo-1,2,3,6,7,8,9,10,11,13a,14,15,16,16a-tetradecahydrocyclopropa[e]pyrrolo[1,2-a][1,4]diazacyclopentadecine-14a(5H)-carboxamide]	< 0.01 µM	< 0.01 µM
COc1ccc2c(O[C@@H]3C[C@H]4C(=O)N[C@]5(C(=O)NS(=O)(=O)C6CC6)C[C@H]5/C=C\CCCCC[C@H](NC(=O)N5CCC(C)(C)C5)C(=O)N4C3)cc(-c3nc(C4CC4)cs3)nc2c1C [Example 34, (2R,6S,13a-5,1-aR,16aS,Z)-N-(cyclopropylsulfonyl)-2-(2-(4-cyclopropylthiazol-2-yl)-7-methoxy-8-methylquinolin-4-yloxy)-6-(3,3-dimethylpyrrolidine-1-carboxamido)-5,16-dioxo-1,2,3,5,6,7,8,9,10,11,13a,14,14a,15,16,16a-hexadecahydrocyclopropa[e]pyrrolo[1,2-a][1,4]diazacyclopentadecine-14a-carboxamide]	< 0.01 µM	< 0.01 µM
CCCN(CC1CC1)C(=O)N[C@H]1CCCCC/C=C\[C@@H]2C[C@@]2(C(=O)NS(=O)(=O)C2CC2)NC(=O)[C@@H]2C[C@@H](Oc3cc(-c4nc(C(C)C)cs4)nc4c(C)c(OC)ccc34)CN2C1=O [Example 19, (2R,6S,13aS,14aR,16aS)-6-({[(cyclopropylmethyl)(propyl)amino]carbonyl}amino)-N-(cyclopropylsulfonyl)-2-{[8-methyl-2-[4-(1-methylethyl)-1,3-thiazol-2-yl]-7-(methyloxy)-4-quinolinyl]oxy}-5,16-dioxo-1,2,3,6,7,8,9,10,11,13a,14,15,16,16a-tetradecahydrocyclopropa[e]pyrrolo[1,2-a][1,4]diazacyclopentadecine-14a(5H)-carboxamide]	< 0.01 µM	< 0.01 µM
